The values that follow come from patent US10787456B2 (priority 2018, dated 2020).

Converted amounts (≈) assume the structure as drawn. Read-outs that look alike come from different tables or passages of the source.

The test system of one series is MDA-MB-231. In words: Cytotoxicity in cancer cell line MDA-MB-231. The class given is cell-based. An excerpt:
(§1) Further cytotoxicity studies show potential for efficacy as […]. Table 2, below, provides IC50 data relating to both a cancer cell line and E. coli minimum inhibitory concentration (MIC).

The target in a further series is κ (KOR) opioid receptor (Homo sapiens, UniProt P41145). Nature of the series: CNS receptor inhibition, Kappa opioid receptor. The class given is binding. As for the experimental part:
(§2) In an illustrative embodiment of the present invention, gliotoxin and Formula 1b, were evaluated for activity of various receptors. Turning to Table 1, inhibitory data is provided for various receptors found in the CNS, including H1 and opioid receptors μ (MOR), […], and κ (KOR). Inhibition data is provided as inhibitor constant, Ki, is the concentration required to produce half-maximum inhibition. This quantitative measure indicates how much of a particular drug or other substance (inhibitor) is needed to inhibit a given biological process (or component of a process, i.e. an enzyme, cell, cell receptor or microorganism) by half. The values are typically expressed as molar (micro- and nano-) concentrations.

The subject of the next series is CNS Receptor. In words: CNS Receptor binding (profile). On the procedure:
as §2

A further series addresses σ (DOR) opioid receptor (Homo sapiens, UniProt P41143). In words: CNS receptor inhibition, Delta opioid receptor. It is filed as binding. On the procedure:
as §2

For the next series, the target named is μ (MOR) opioid receptor (Homo sapiens, UniProt P35372). Nature of the series: CNS receptor inhibition, Mu opioid receptor. It is filed as binding. As for the experimental part: as §2
μ (MOR) opioid receptor, sequence (P35372 whole entry): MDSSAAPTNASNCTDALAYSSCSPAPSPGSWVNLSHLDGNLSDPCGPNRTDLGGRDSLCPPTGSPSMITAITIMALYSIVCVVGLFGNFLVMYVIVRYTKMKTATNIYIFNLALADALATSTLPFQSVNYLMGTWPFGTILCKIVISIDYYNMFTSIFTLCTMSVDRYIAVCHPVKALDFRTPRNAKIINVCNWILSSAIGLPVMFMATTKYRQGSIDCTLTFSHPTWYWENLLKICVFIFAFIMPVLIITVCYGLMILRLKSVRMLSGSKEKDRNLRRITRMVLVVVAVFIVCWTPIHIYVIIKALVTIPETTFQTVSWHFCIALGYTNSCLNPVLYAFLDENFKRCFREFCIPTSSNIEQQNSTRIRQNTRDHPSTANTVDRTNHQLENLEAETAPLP
A further series has as its system HUVEC cells. Nature of the series: Angiogenesis study, tube formation in HUVEC. The following applies: 100 nM of drug treatment. It is filed as cell-based. As for the experimental part:
Angiogenesis studies were performed using HUVEC cells (see FIGS. 6A-6C). Tube formation in HUVEC in presence of 100 nM of drug treatment.

For a further series, the system named is bEnd.3 cells. Nature of the series: Blood-brain barrier membrane permeability in in-vitro monolayer of bEnd.3 cells. The class given is in vitro ADME. The settings on record: in 30 minutes. An excerpt:
FIG. 4 provides permeability data for the blood-brain barrier (BBB) of various compounds, including gliotoxin and Formula 1b. Membrane permeability increases linearly as a function of time.

For another series, the system named is E. Coli. Nature of the series: E. coli minimum inhibitory concentration. The class given is cell-based.
From the text: as §1

The target in another series is H1 receptor (Homo sapiens, UniProt P35367). In words: CNS receptor inhibition, H1 receptor. The class given is binding. As for the experimental part: as §2
H1 receptor, sequence (P35367 whole entry): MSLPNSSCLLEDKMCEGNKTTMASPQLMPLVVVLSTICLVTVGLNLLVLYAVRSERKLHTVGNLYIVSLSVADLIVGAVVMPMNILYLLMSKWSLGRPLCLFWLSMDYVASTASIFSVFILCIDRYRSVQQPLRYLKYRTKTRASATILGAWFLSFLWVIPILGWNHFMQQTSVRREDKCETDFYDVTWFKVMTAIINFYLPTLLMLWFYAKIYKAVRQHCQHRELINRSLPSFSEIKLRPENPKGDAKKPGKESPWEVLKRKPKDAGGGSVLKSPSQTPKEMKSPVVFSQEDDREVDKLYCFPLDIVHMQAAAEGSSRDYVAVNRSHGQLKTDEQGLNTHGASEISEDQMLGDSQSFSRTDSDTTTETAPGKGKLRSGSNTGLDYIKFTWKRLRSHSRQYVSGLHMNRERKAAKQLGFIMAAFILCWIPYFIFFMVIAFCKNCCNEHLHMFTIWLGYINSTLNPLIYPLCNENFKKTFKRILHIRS

σ (DOR) opioid receptor, sequence (P41143 whole entry): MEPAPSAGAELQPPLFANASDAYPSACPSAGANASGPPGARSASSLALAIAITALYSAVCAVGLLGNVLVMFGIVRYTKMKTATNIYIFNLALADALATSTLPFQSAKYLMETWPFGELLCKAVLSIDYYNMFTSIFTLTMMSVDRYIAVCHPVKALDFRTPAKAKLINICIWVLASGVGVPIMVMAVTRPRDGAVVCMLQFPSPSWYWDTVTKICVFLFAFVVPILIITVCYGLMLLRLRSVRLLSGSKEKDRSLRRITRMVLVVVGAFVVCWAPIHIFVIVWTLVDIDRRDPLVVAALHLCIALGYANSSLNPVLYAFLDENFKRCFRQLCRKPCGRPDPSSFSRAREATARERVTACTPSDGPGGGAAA
κ (KOR) opioid receptor, sequence (P41145 whole entry): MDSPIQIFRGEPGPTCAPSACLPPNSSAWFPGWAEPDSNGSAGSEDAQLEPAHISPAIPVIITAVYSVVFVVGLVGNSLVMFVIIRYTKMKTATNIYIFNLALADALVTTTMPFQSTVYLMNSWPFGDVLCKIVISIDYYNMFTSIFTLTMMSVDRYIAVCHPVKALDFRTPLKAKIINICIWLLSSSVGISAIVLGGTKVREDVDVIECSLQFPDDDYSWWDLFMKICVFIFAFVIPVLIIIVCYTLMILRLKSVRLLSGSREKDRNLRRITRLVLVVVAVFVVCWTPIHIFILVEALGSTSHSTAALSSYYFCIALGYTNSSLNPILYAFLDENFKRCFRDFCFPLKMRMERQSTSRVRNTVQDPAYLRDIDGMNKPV

As for `CCc1cccc2c1N1C(=O)CC(C)C(=O)C1C2` (stereo not drawn) [Formula 1b, 4-ethyl-8-methyl-7,8,9a,10-tetrahydropyrido[1,2-α]indole-6,9-dione], the IC50 (commonly the concentration at which inhibition is half-maximal) with MDA-MB-231 was > 100000 nM. Besides, the “Inhibition (%)” value is listed as 99.3% at κ (KOR) opioid receptor, 97.4% on σ (DOR) opioid receptor and 97.8% on μ (MOR) opioid receptor. Further, the “CNS Receptor binding” value with CNS Receptor is reported as “Opioid Antagonist”. Also, in the series with HUVEC cells, the “Inhibition of tube formation” value is “no inhibition was observed”. For the same compound, the “ability to cross the BBB” value in the series with bEnd.3 cells turned out to be 80%. Besides, the “E. Coli MIC” value with E. Coli is listed as “Not Active”.
For the compound `CN1C(=O)[C@]23CC4=CC=C[C@H](O)[C@H]4N2C(=O)[C@@]1(CO)SS3` [Gliotoxin, reference compound], at H1 receptor, the “CNS activity, inhibition of the H1 receptor (FIG. 7)” value is reported as “partial inhibition”. The “Inhibition (%)” value at H1 receptor (H1) is 61%. Inhibition in the series with MDA-MB-231 (Homo sapiens) was half-maximal at 1400 nM (IC50). In addition, the “CNS Receptor binding” value with CNS Receptor was “H1 Receptor Antagonist”. Besides, in the series on HUVEC cells, the “Inhibition of tube formation” value is recorded as “Inhibition of tube formation was observed”. Moreover, the lowest concentration to inhibit growth against E. Coli (Escherichia coli) (MIC) was 32 µg/mL (≈ 98 µM).
